Where no end group is shown, it is not given here.
Experiments:
HCT116 cells = format: cell-based, human

Substance: YGRKKRRQRRR GG TNVFNATFHIWHSGQFGTINNFRLGRLPSV (YGRKKRRQRRRGGTNVFNATFHIWHSGQFGTINNFRLGRLPSV; Synthetic TB WT 267-296) [Tat-Bec(267-296)WT]
- capacity to promote lentiviral transduction at 2.5 μM (HCT116 cells): promoting the lentiviral transduction but less efficiently than the Tat-Bec(267-296) peptide

Substance: TNVFNATFEIWHDGEFGT (Synthetic modified beclin-1 267-284) [the 267-284 modified beclin1 domain, reference compound]
- capacity to promote lentiviral transduction (HCT116 cells): neither Tat nor Bec peptides are capable to promote lentiviral transduction

Substance: YGRKKRRQRRR GG TNVFNATFHIWHSGQFGT (YGRKKRRQRRRGGTNVFNATFHIWHSGQFGT; Synthetic TB WT) [Tat-BecWT]
- capacity to promote lentiviral transduction at 2.5 μM (HCT116 cells): capable to promote lentiviral transduction as efficiently as TB1
- capacity to promote lentiviral transduction at 5 μM (HCT116 cells): no longer active
- effect on lentiviral transduction at 100 nM (HCT116 cells): no effect
- optimal dose to promote lentiviral transduction (HCT116 cells): 1 µM

Substance: YGRKKRRQRRR (Synthetic Tat (47-57)) [the Tat transduction domain, reference compound]
- capacity to promote lentiviral transduction (HCT116 cells): neither Tat nor Bec peptides are capable to promote lentiviral transduction

Substance: YGRKKRRQRRR GG INCFTATFEIWVEGPLGV (YGRKKRRQRRRGGINCFTATFEIWVEGPLGV; Synthetic TAT+ GG + Beclin2) [Tat-Bec2WT]
- effect on lentiviral transduction at 100 nM (HCT116 cells): three-folds
- lentiviral transduction at 100 nM (HCT116 cells): 30%
- optimal dose to promote lentiviral transduction (HCT116 cells): 0.5 µM

Substance: YGRKKRRQRRR GG TNVFNATFEIWHDGEFGTINNFRLGRLPSV (YGRKKRRQRRRGGTNVFNATFEIWHDGEFGTINNFRLGRLPSV; Synthetic TB1 267-296) [Tat-Bec(267-296)]
- dose capable to promote optimal lentiviral transduction (HCT116 cells): ≥ 1 µM

Substance: YGRKKRRQRRR GG VENQMRYAQTQLDKLKKTNVFNATFEIWHDGEF (YGRKKRRQRRRGGVENQMRYAQTQLDKLKKTNVFNATFEIWHDGEF; Synthetic TB1 250-282) [Tat-Bec(250-282)]
- capacity to promote lentiviral transduction at 2.5 μM (HCT116 cells): most performant peptide at a low dose

Substance: YGRKKRRQRRR GG FEIWHDGEFGTINNFRLGRLPSVPV (YGRKKRRQRRRGGFEIWHDGEFGTINNFRLGRLPSVPV; Synthetic TB1 274-298) [Tat-Bec(274-298)]
- capacity to promote lentiviral transduction at 2.5 μM (HCT116 cells): most of the derivatives are a lot more efficient than TB1, except for Tat-Bec(274-298)

Substance: KLALKLALKALKAALKA G TNVFNATFEIWHDGEFGT (KLALKLALKALKAALKAGTNVFNATFEIWHDGEFGT; Synthetic MAP-B1) [MAP-Beclin1]
- capacity to promote lentiviral transduction (HCT116 cells): as efficient as TB1

Substance: KKALLHAALAHLLALAHHLLALLKKA-NH2 [Vectofusin-1]
- aggregation of viral particles (pull-down) (VSV-G-LV particles): aggregation of viral particles, like it is the case for Vectofusin-1

Substance: YGRKKRRQRRR TNVFNATFEIWHDGEFGTINNFRLGRLPSV (YGRKKRRQRRRTNVFNATFEIWHDGEFGTINNFRLGRLPSV; Synthetic modified Tat-Beclin-1 + beclin-1 285-296) [Tat-Bec(267-296)dGG]
- increase of the level of viral transduction (HCT116 cells): nearly five folds

From patent publication US11371061B2, “Compositions and methods for improving viral vector efficiency” (GENETHON, priority 2015, dated 2022)
